Test results as given in US4471131A, “Novel silyl esters of N-phosphonomethylglycine” (Monsanto Company, priority 1983, dated 1984).

Legend:
Test in all cases: post-emergence herbicidal activity, greenhouse
Type in all cases: in vivo
Downy Brome = conditions: Table III; 4 WAT; .28 kg/h; formulated in anhydrous tetrahydrofuran
Method in brief: (§1)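 After sowing in soil-filled pans and growing under greenhouse conditions, plants at two to three weeks were sprayed post-emergence with the test compound in a formulation containing approximately 0.4% emulsifier by weight. Observations of plant injury, relative to controls, followed at about two and four weeks.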

Velvetleaf = test system: Velvetleaf
Method in brief: as §1

Yellow Nutsedge = conditions: Table II
Method in brief: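 Candidate chemical is applied by atomizer at the indicated rates to emerged plants of 2–3 weeks, spray containing about 0.4 wt% emulsifier. Effects are judged as injury against unsprayed control pans, approximately two and four weeks post-application.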

Canada Thistle = conditions: Table II
Method in brief: as §1

Wild Buckwheat = conditions: Table III
Method in brief: as §1

Cocklebur = test system: Cocklebur
Method in brief: as §1

[1] = Table II, 2 WAT, 5.6 kg/h, formulated in anhydrous tetrahydrofuran
[2] = Table II, 2 WAT, 11.2 kg/h, formulated in anhydrous tetrahydrofuran
[3] = Table II, 4 WAT, 5.6 kg/h, formulated in anhydrous tetrahydrofuran
[4] = Table II, 4 WAT, 11.2 kg/h, formulated in anhydrous tetrahydrofuran
[5] = Table III, 2 WAT, 1.1 kg/h, formulated in anhydrous tetrahydrofuran
[6] = Table III, 2 WAT, 5.6 kg/h, formulated in anhydrous tetrahydrofuran
[7] = Table III, 2 WAT, .28 kg/h, formulated in anhydrous tetrahydrofuran
[8] = Table III, 4 WAT, 1.1 kg/h, formulated in anhydrous tetrahydrofuran
[9] = Table III, 4 WAT, 5.6 kg/h, formulated in anhydrous tetrahydrofuran
[10] = Table III, 4 WAT, .28 kg/h, formulated in anhydrous tetrahydrofuran
[11] = 2 WAT, 5.6 kg/h, formulated in anhydrous tetrahydrofuran
[12] = 2 WAT, 11.2 kg/h, formulated in anhydrous tetrahydrofuran
[13] = 4 WAT, 5.6 kg/h, formulated in anhydrous tetrahydrofuran
[14] = 4 WAT, 11.2 kg/h, formulated in anhydrous tetrahydrofuran

## CCCCOC(=O)CNCP(=O)(O)O[Si](c1ccccc1)(c1ccccc1)C(C)(C)C [Ex. 6, Glycine, N--((([(1,1-Dimethylethyl)Diphenylsilyl]Oxy)Hydroxyphosphinyl)methyl)-Butyl Ester]
Downy Brome
  Plant Response Index (J): 0 (0-24% inhibition)
Velvetleaf; Table II, 2 WAT, 5.6 kg/h
  Plant Response Index (C): 0 (0-24% inhibition)
Velvetleaf; [1]
  Plant Response Index (C): 0 (0-24% inhibition)
Velvetleaf; Table II, 2 WAT, 11.2 kg/h
  Plant Response Index (C): 2 (50-74% inhibition)
Velvetleaf; [2]
  Plant Response Index (C): 0 (0-24% inhibition)
Velvetleaf; Table II, 4 WAT, 5.6 kg/h
  Plant Response Index (C): 0 (0-24% inhibition)
Velvetleaf; [3]
  Plant Response Index (C): 0 (0-24% inhibition)
Velvetleaf; Table II, 4 WAT, 11.2 kg/h
  Plant Response Index (C): 1 (25-49% inhibition)
Velvetleaf; [4]
  Plant Response Index (C): 1 (25-49% inhibition)
Velvetleaf; Table III, 2 WAT, 1.1 kg/h
  Plant Response Index (C): 1 (25-49% inhibition)
Velvetleaf; [5]
  Plant Response Index (C): 1 (25-49% inhibition)
Velvetleaf; Table III, 2 WAT, 5.6 kg/h
  Plant Response Index (C): 2 (50-74% inhibition)
Velvetleaf; [6]
  Plant Response Index (C): 2 (50-74% inhibition)
Velvetleaf; Table III, 2 WAT, .28 kg/h
  Plant Response Index (C): 0 (0-24% inhibition)
Velvetleaf; [7]
  Plant Response Index (C): 0 (0-24% inhibition)
Velvetleaf; Table III, 4 WAT, 1.1 kg/h
  Plant Response Index (C): 1 (25-49% inhibition)
Velvetleaf; [8]
  Plant Response Index (C): 1 (25-49% inhibition)
Velvetleaf; Table III, 4 WAT, 5.6 kg/h
  Plant Response Index (C): 2 (50-74% inhibition)
Velvetleaf; [9]
  Plant Response Index (C): 2 (50-74% inhibition)
Velvetleaf; [10]
  Plant Response Index (C): 0 (0-24% inhibition)
Yellow Nutsedge; 2 WAT, 5.6 kg/h
  Plant Response Index (G): 0 (0-24% inhibition)
Yellow Nutsedge; [11]
  Plant Response Index (G): 0 (0-24% inhibition)
Yellow Nutsedge; 2 WAT, 11.2 kg/h
  Plant Response Index (G): 1 (25-49% inhibition)
Yellow Nutsedge; [12]
  Plant Response Index (G): 0 (0-24% inhibition)
Yellow Nutsedge; 4 WAT, 5.6 kg/h
  Plant Response Index (G): 1 (25-49% inhibition)
Yellow Nutsedge; [13]
  Plant Response Index (G): 1 (25-49% inhibition)
Yellow Nutsedge; 4 WAT, 11.2 kg/h
  Plant Response Index (G): 2 (50-74% inhibition)
Yellow Nutsedge; [14]
  Plant Response Index (G): 1 (25-49% inhibition)
Canada Thistle; 2 WAT, 5.6 kg/h
  Plant Response Index (A): 0 (0-24% inhibition)
Canada Thistle; [11]
  Plant Response Index (A): 0 (0-24% inhibition)
Canada Thistle; 2 WAT, 11.2 kg/h
  Plant Response Index (A): 3 (75-99% inhibition)
Canada Thistle; [12]
  Plant Response Index (A): 0 (0-24% inhibition)
Canada Thistle; 4 WAT, 5.6 kg/h
  Plant Response Index (A): 1 (25-49% inhibition)
Canada Thistle; [13]
  Plant Response Index (A): 0 (0-24% inhibition)
Canada Thistle; 4 WAT, 11.2 kg/h
  Plant Response Index (A): 4 (100% inhibition)
Canada Thistle; [14]
  Plant Response Index (A): 1 (25-49% inhibition)
Wild Buckwheat; 2 WAT, 1.1 kg/h
  Plant Response Index (Q): 2 (50-74% inhibition)
Wild Buckwheat; 2 WAT, 1.1 kg/h, formulated in anhydrous tetrahydrofuran
  Plant Response Index (Q): 2 (50-74% inhibition)
Wild Buckwheat; 2 WAT, 5.6 kg/h
  Plant Response Index (Q): 2 (50-74% inhibition)
Wild Buckwheat; [11]
  Plant Response Index (Q): 2 (50-74% inhibition)
Wild Buckwheat; 2 WAT, .28 kg/h
  Plant Response Index (Q): 1 (25-49% inhibition)
Wild Buckwheat; 2 WAT, .28 kg/h, formulated in anhydrous tetrahydrofuran
  Plant Response Index (Q): 1 (25-49% inhibition)
Wild Buckwheat; 4 WAT, 1.1 kg/h
  Plant Response Index (Q): 1 (25-49% inhibition)
Wild Buckwheat; 4 WAT, 1.1 kg/h, formulated in anhydrous tetrahydrofuran
  Plant Response Index (Q): 2 (50-74% inhibition)
Wild Buckwheat; 4 WAT, 5.6 kg/h
  Plant Response Index (Q): 3 (75-99% inhibition)
Wild Buckwheat; [13]
  Plant Response Index (Q): 2 (50-74% inhibition)
Wild Buckwheat; 4 WAT, .28 kg/h, formulated in anhydrous tetrahydrofuran
  Plant Response Index (Q): 1 (25-49% inhibition)
Cocklebur; Table II, 2 WAT, 5.6 kg/h
  Plant Response Index (B): 1 (25-49% inhibition)
Cocklebur; [1]
  Plant Response Index (B): 1 (25-49% inhibition)
Cocklebur; Table II, 2 WAT, 11.2 kg/h
  Plant Response Index (B): 2 (50-74% inhibition)
Cocklebur; [2]
  Plant Response Index (B): 1 (25-49% inhibition)
Cocklebur; Table II, 4 WAT, 5.6 kg/h
  Plant Response Index (B): 1 (25-49% inhibition)
Cocklebur; [3]
  Plant Response Index (B): 1 (25-49% inhibition)
Cocklebur; Table II, 4 WAT, 11.2 kg/h
  Plant Response Index (B): 2 (50-74% inhibition)
Cocklebur; [4]
  Plant Response Index (B): 2 (50-74% inhibition)
Cocklebur; Table III, 2 WAT, 1.1 kg/h
  Plant Response Index (B): 2 (50-74% inhibition)
Cocklebur; [5]
  Plant Response Index (B): 1 (25-49% inhibition)
Cocklebur; Table III, 2 WAT, 5.6 kg/h
  Plant Response Index (B): 3 (75-99% inhibition)
Cocklebur; [6]
  Plant Response Index (B): 2 (50-74% inhibition)
Cocklebur; Table III, 2 WAT, .28 kg/h
  Plant Response Index (B): 0 (0-24% inhibition)
Cocklebur; [7]
  Plant Response Index (B): 1 (25-49% inhibition)
Cocklebur; Table III, 4 WAT, 1.1 kg/h
  Plant Response Index (B): 2 (50-74% inhibition)
Cocklebur; [8]
  Plant Response Index (B): 1 (25-49% inhibition)
Cocklebur; Table III, 4 WAT, 5.6 kg/h
  Plant Response Index (B): 3 (75-99% inhibition)
Cocklebur; [9]
  Plant Response Index (B): 2 (50-74% inhibition)
Cocklebur; [10]
  Plant Response Index (B): 1 (25-49% inhibition)
